Assay results as given in patent US12264159B2, “Functionalized heterocycles as antiviral agents” (Enanta Pharmaceuticals, Inc., priority 2018, dated 2025).

Test system: HBV in 2.2.15 cells
Test: 2.2.15 cells: viral product in cell lysates quantified via quantitative real time PCR
Format: cell-based, hepatitis B virus (HBV)
Details: Hepatitis B virus, 120 h, day 5 post treatment, 50% reduction of viral product vs no drug controls, readout (qPCR, HBsAg or HBeAg) not specified for the column
Procedure: 2.2.15 cells are passaged upon attaining confluency in DMEM/F12 media in the presence of 10% FBS, Penn/Strep, and 250 ug/mL G418. Novel compounds are 5 fold serially diluted in DMSO and added to 96 well plates containing 35,000 cells/well at a 1:200 dilution so that the final concentration of DMSO is 0.5%. On day 5, post treatment cell lysates and supernatants are harvested for analysis.
Cells are lysed using Agilent Sidestep Lysis buffer, diluted 1:100 and quantified via quantitative real time PCR. Commercially available ELISA kits are used to quantitate the viral proteins HBsAg (Alpco) or HBeAg (US Biological) by following the manufacturer's recommended protocol after diluting samples to match the linear range of their respective assays. Irrespective of readout, compound concentrations that reduce viral product accumulation in the cell lysates or supernatants by 50% relative to no drug controls (EC50) are reported; EC50 ranges are as follows: A<0.1 μM; B 0.2-1 μM; C>1 μM.

| Structure (SMILES) | EC50 [nM] |
| --- | --- |
| CC(C)[C@@H]1Cn2nc(-c3cccnc3)c(-c3cccnc3)c2-c2c(F)c(=O)c(C(=O)O)cn21 [Example 189, (R)-11-fluoro-6-isopropyl-10-oxo-1,2-di(pyridin-3-yl)-5,6-dihydro-10H-pyrazolo[1,5-a]pyrido[2,1-c]pyrazine-9-carboxylic acid] | 200 to 1000 |
| CC(C)[C@@H]1Cn2nc(-c3cccc(Cl)c3)c(-c3cccc(Cl)c3)c2-c2c(F)c(=O)c(C(=O)O)cn21 [Example 185, (R)-1,2-bis(3-chlorophenyl)-11-fluoro-6-isopropyl-10-oxo-5,6-dihydro-10H-pyrazolo[1,5-a]pyrido[2,1-c]pyrazine-9-carboxylic acid] | 200 to 1000 |
| CC(C)[C@@H]1Cn2nc(C3CC3)c(-c3ccccc3O)c2-c2cc(=O)c(C(=O)O)cn21 [Example 141, (R)-2-cyclopropyl-1-(2-hydroxyphenyl)-6-isopropyl-10-oxo-5,6-dihydro-10H-pyrazolo[1,5-a]pyrido[2,1-c]pyrazine-9-carboxylic acid] | < 100 |
| CC(C)(C)[C@@H]1Cn2ncc(-c3cncnc3)c2-c2cc(=O)c(C(=O)O)cn21 [Example 120, (R)-6-(tert-butyl)-10-oxo-1-(pyrimidin-5-yl)-5,6-dihydro-10H-pyrazolo[1,5-a]pyrido[2,1-c]pyrazine-9-carboxylic acid] | > 1000 |
| CC(C)[C@@H]1Cn2nc(C3CC3)c(-c3cnsc3)c2-c2cc(=O)c(C(=O)O)cn21 [Example 138, (R)-2-cyclopropyl-6-isopropyl-1-(isothiazol-4-yl)-10-oxo-5,6-dihydro-10H-pyrazolo[1,5-a]pyrido[2,1-c]pyrazine-9-carboxylic acid] | < 100 |
| CC(C)[C@@H]1Cn2nc(C3CC3)c(-c3ccnnc3)c2-c2cc(=O)c(C(=O)O)cn21 [Example 145, (R)-2-cyclopropyl-6-isopropyl-10-oxo-1-(pyridazin-4-yl)-5,6-dihydro-10H-pyrazolo[1,5-a]pyrido[2,1-c]pyrazine-9-carboxylic acid] | 200 to 1000 |
| CC(C)[C@@H]1Cn2nc(C3CC3)c(-c3cncc(F)c3)c2-c2cc(=O)c(C(=O)O)cn21 [Example 135, (R)-2-cyclopropyl-1-(5-fluoropyridin-3-yl)-6-isopropyl-10-oxo-5,6-dihydro-10H-pyrazolo[1,5-a]pyrido[2,1-c]pyrazine-9-carboxylic acid] | < 100 |
| O=C(O)c1cn2c(cc1=O)-c1c(-c3ccccc3F)c(-c3ccccc3F)nn1CC2 [Example 202, 1,2-bis(2-fluorophenyl)-10-oxo-5,6-dihydro-10H-pyrazolo[1,5-a]pyrido[2,1-c]pyrazine-9-carboxylic acid] | < 100 |
| O=C(O)c1cn2c(cc1=O)-c1c(-c3ccc(F)cc3)c(-c3ccc(F)cc3)nn1CC2 [Example 200, 1,2-bis(4-fluorophenyl)-10-oxo-5,6-dihydro-10H-pyrazolo[1,5-a]pyrido[2,1-c]pyrazine-9-carboxylic acid] | < 100 |
| CC(C)(C)[C@@H]1Cn2nc(-c3ccc(F)cc3)c(Cl)c2-c2cc(=O)c(C(=O)O)cn21 [Example 87, (R)-6-(tert-butyl)-1-chloro-2-(4-fluorophenyl)-10-oxo-5,6-dihydro-10H-pyrazolo[1,5-a]pyrido[2,1-c]pyrazine-9-carboxylic acid] | < 100 |
| CCOc1ccccc1-c1nn2c(c1F)-c1cc(=O)c(C(=O)O)cn1[C@H](C(C)(C)C)C2 [Example 92, (R)-6-(tert-butyl)-2-(2-ethoxyphenyl)-1-fluoro-10-oxo-5,6-dihydro-10H-pyrazolo[1,5-a]pyrido[2,1-c]pyrazine-9-carboxylic acid] | < 100 |
| CC(C)(C)[C@@H]1Cn2nc(-c3ccc(F)cc3)c(-c3ccoc3)c2-c2cc(=O)c(C(=O)O)cn21 [Example 167, (R)-6-(tert-butyl)-2-(4-fluorophenyl)-1-(furan-3-yl)-10-oxo-5,6-dihydro-10H-pyrazolo[1,5-a]pyrido[2,1-c]pyrazine-9-carboxylic acid] | < 100 |
| CC(C)(C)[C@@H]1Cn2nc(C3CC3)c(-c3ccnnc3)c2-c2cc(=O)c(C(=O)O)cn21 [Example 161, (R)-6-(tert-butyl)-2-cyclopropyl-10-oxo-1-(pyridazin-4-yl)-5,6-dihydro-10H-pyrazolo[1,5-a]pyrido[2,1-c]pyrazine-9-carboxylic acid] | 200 to 1000 |
| CC(C)[C@@H]1Cn2nc(C3CC3)c(-c3cn[nH]c3)c2-c2cc(=O)c(C(=O)O)cn21 [Example 137, (R)-2-cyclopropyl-6-isopropyl-10-oxo-1-(1H-pyrazol-4-yl)-5,6-dihydro-10H-pyrazolo[1,5-a]pyrido[2,1-c]pyrazine-9-carboxylic acid] | 200 to 1000 |
| CC(C)(C)[C@@H]1Cn2cc(-c3ccc(F)cc3)nc2-c2cc(=O)c(C(=O)O)cn21 [Example 90, (R)-6-(tert-butyl)-2-(4-fluorophenyl)-10-oxo-5,6-dihydro-10H-imidazo[1,2-a]pyrido[2,1-c]pyrazine-9-carboxylic acid] | 200 to 1000 |
| CC(C)[C@@H]1Cn2nc(-c3ccnnc3)c(-c3ccnnc3)c2-c2c(F)c(=O)c(C(=O)O)cn21 [Example 183, (R)-11-fluoro-6-isopropyl-10-oxo-1,2-di(pyridazin-4-yl)-5,6-dihydro-10H-pyrazolo[1,5-a]pyrido[2,1-c]pyrazine-9-carboxylic acid] | 200 to 1000 |
| CC(C)[C@@H]1Cn2nc(C3CC3)c(-c3ccncc3)c2-c2cc(=O)c(C(=O)O)cn21 [Example 144, (R)-2-cyclopropyl-6-isopropyl-10-oxo-1-(pyridin-4-yl)-5,6-dihydro-10H-pyrazolo[1,5-a]pyrido[2,1-c]pyrazine-9-carboxylic acid] | < 100 |
| CC(C)(C)[C@@H]1Cn2ncc(-c3ccncc3)c2-c2cc(=O)c(C(=O)O)cn21 [Example 119, (R)-6-(tert-butyl)-10-oxo-1-(pyridin-4-yl)-5,6-dihydro-10H-pyrazolo[1,5-a]pyrido[2,1-c]pyrazine-9-carboxylic acid] | < 100 |
| Cc1ncc(-c2cnn3c2-c2cc(=O)c(C(=O)O)cn2[C@H](C(C)(C)C)C3)s1 [Example 105, (R)-6-(tert-butyl)-1-(2-methylthiazol-5-yl)-10-oxo-5,6-dihydro-10H-pyrazolo[1,5-a]pyrido[2,1-c]pyrazine-9-carboxylic acid] | 200 to 1000 |
| CC(C)[C@@H]1Cn2nc(-c3cccnc3)c(-c3cccnc3)c2-c2cc(=O)c(C(=O)O)cn21 [Example 177, (R)-6-isopropyl-10-oxo-1,2-di(pyridin-3-yl)-5,6-dihydro-10H-pyrazolo[1,5-a]pyrido[2,1-c]pyrazine-9-carboxylic acid] | 200 to 1000 |
| CC(C)[C@@H]1Cn2nc(-c3ccncc3)c(-c3ccncc3)c2-c2cc(=O)c(C(=O)O)cn21 [Example 175, (R)-6-isopropyl-10-oxo-1,2-di(pyridin-4-yl)-5,6-dihydro-10H-pyrazolo[1,5-a]pyrido[2,1-c]pyrazine-9-carboxylic acid] | 200 to 1000 |
| CC(C)(C)[C@@H]1Cn2ncc(-c3ccc(OC(F)(F)F)cc3)c2-c2cc(=O)c(C(=O)O)cn21 [Example 117, (R)-6-(tert-butyl)-10-oxo-1-(4-(trifluoromethoxy)phenyl)-5,6-dihydro-10H-pyrazolo[1,5-a]pyrido[2,1-c]pyrazine-9-carboxylic acid] | > 1000 |
| CC(C)[C@@H]1Cn2nc(-c3ccc(OC4CC4)cc3)c(-c3ccc(OC4CC4)cc3)c2-c2cc(=O)c(C(=O)O)cn21 [Example 176, (R)-1,2-bis(4-cyclopropoxyphenyl)-6-isopropyl-10-oxo-5,6-dihydro-10H-pyrazolo[1,5-a]pyrido[2,1-c]pyrazine-9-carboxylic acid] | 200 to 1000 |
| CC(C)[C@@H]1Cn2nc(-c3ccncc3)c(-c3ccncc3)c2-c2c(F)c(=O)c(C(=O)O)cn21 [Example 184, (R)-11-fluoro-6-isopropyl-10-oxo-1,2-di(pyridin-4-yl)-5,6-dihydro-10H-pyrazolo[1,5-a]pyrido[2,1-c]pyrazine-9-carboxylic acid] | 200 to 1000 |
| CCOc1ccccc1-c1cnn2c1-c1cc(=O)c(C(=O)O)cn1[C@H](C(C)(C)C)C2 [Example 124, (R)-6-(tert-butyl)-1-(2-ethoxyphenyl)-10-oxo-5,6-dihydro-10H-pyrazolo[1,5-a]pyrido[2,1-c]pyrazine-9-carboxylic acid] | < 100 |
| CC(C)[C@@H]1Cn2nc(-c3cccc(O)c3)c(-c3cccc(O)c3)c2-c2c(F)c(=O)c(C(=O)O)cn21 [Example 190, (R)-11-fluoro-1,2-bis(3-hydroxyphenyl)-6-isopropyl-10-oxo-5,6-dihydro-10H-pyrazolo[1,5-a]pyrido[2,1-c]pyrazine-9-carboxylic acid] | 200 to 1000 |
| CC(C)[C@@H]1Cn2nc(-c3cncc(F)c3)c(-c3cncc(F)c3)c2-c2cc(=O)c(C(=O)O)cn21 [Example 174, (R)-1,2-bis(5-fluoropyridin-3-yl)-6-isopropyl-10-oxo-5,6-dihydro-10H-pyrazolo[1,5-a]pyrido[2,1-c]pyrazine-9-carboxylic acid] | 200 to 1000 |
| CC(C)[C@@H]1Cn2nc(-c3cccc(O)c3)c(-c3cccc(O)c3)c2-c2cc(=O)c(C(=O)O)cn21 [Example 178, (R)-1,2-bis(3-hydroxyphenyl)-6-isopropyl-10-oxo-5,6-dihydro-10H-pyrazolo[1,5-a]pyrido[2,1-c]pyrazine-9-carboxylic acid] | < 100 |
| CC(C)(C)[C@@H]1Cn2ncc(-c3ccccc3C(F)(F)F)c2-c2cc(=O)c(C(=O)O)cn21 [Example 121, (R)-6-(tert-butyl)-10-oxo-1-(2-(trifluoromethyl)phenyl)-5,6-dihydro-10H-pyrazolo[1,5-a]pyrido[2,1-c]pyrazine-9-carboxylic acid] | > 1000 |
